Measurements reported in patent publication US7507739B2, “6-[(substituted)phenyl]triazolopyrimidines as anticancer agents” (Wyeth, priority 2003, dated 2009).
Marks after values point to notes of the source that are not given here.

What was measured:
MAP-rich tubulin = assay: Tubulin polymerization test with MAP-rich tubulin; assay type: biochemical, bovine; conditions: 0.3 μM compound, 20 min, fold enhancement over control
In short: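 Bovine brain MAP-rich tubulin (1.3 mg/mL) in PEM buffer pH 6.9 with 1 mM GTP, compounds at 0.3 μM final (0.3% DMSO), 24° for 60 min. Turbidity read at 340 nm each minute, baseline-subtracted; mean A340 at 20 min divided by solvent control gives fold enhancement.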

[1] = tested on: LoVo Human Colon Carcinoma; assay: Human tumor xenograft test, LoVo; assay type: in vivo, athymic mice; conditions: for T/C on day 0 / T/C on day 7 / T/C on day 14 / T/C on day 21 / T/C on day 28 / T/C on day 35: days 1, 7, 14
Experimental: (§1) The ability of compounds of this invention to inhibit tumor growth in animals is studied in the athymic mouse xenograft standard pharmacological test. Female nu/nu mice in an outbred albino background are obtained from Charles River Laboratories (Wilmington, Mass.). Animals are injected subcutaneously on the flank with the desired tumor cell suspension. Several days later, mice with tumors of approximately 150 mm^3 are selected from those injected (staged) and randomly distributed into groups of 5-10. The day of staging is called day 0. Compounds of the invention, usually formulated in saline (exceptions are noted in tables), are administered to animals by intravenous injection or oral gavage on various schedules starting on day 0 or 1, as noted in the tables. The control group in each experiment is dosed with vehicle on the same schedule. Tumor size is measured every 3-7 days with calipers in two orthogonal dimensions, and tumor volume is calculated from the formula volume=[(length×width^2)/2].
(§2) Tumor/Control (T/C) is obtained by dividing the mean tumor volume of the treated group by the mean tumor volume of the control group on each measurement day. A treatment dose is defined as active if it produced a statistically significant T/C of 0.50 or less. A p value≦0.05, determined by one-side Student's t-test, is required for statistical significance. A treatment dose is defined as toxic if more than 10% of the animals died from a compound-related toxicity.

[2] = tested on: DLD1 Human Colon Carcinoma; assay: Human tumor xenograft test, DLD1; assay type: in vivo; conditions: days 1, 5, 9, 13
Experimental: as §1, §2

[3] = tested on: U87-MG Human Glioblastoma; assay: Human tumor xenograft test, U87-MG; assay type: in vivo, athymic mice; conditions: U87-MG
Experimental: as §1, §2

[4] = tested on: A549 Human Non-Small Cell Lung Carcinoma; assay: Human tumor xenograft test, A549; assay type: in vivo, athymic mice; conditions: for T/C on day 0 / T/C on day 7 / T/C on day 14 / T/C on day 21 / T/C on day 27 / T/C on day 35: days 0, 6, 13, 20
Experimental: as §1, §2

SMILES: C[C@H](Nc1c(-c2c(F)cc(OCCCN(C)C)cc2F)c(Br)nc2ncnn12)C(F)(F)F [Example 25, 5-Bromo-6-{4-[3-(dimethylamino)propoxy]-2,6-difluorophenyl}-N-[(1S)-2,2,2-trifluoro-1-methylethyl][1,2,4]triazolo[1,5-a]pyrimidin-7-amine]
- A340 Compound/A340 Control (MAP-rich tubulin): 7.2

SMILES: CNCCCOc1cc(F)c(-c2c(Cl)nc3ncnn3c2C2CCCCCC2)c(F)c1.O=C(O)C(F)(F)F [Example 32, 3-[4-(5-Chloro-7-cycloheptyl[1,2,4]triazolo[1,5-a]pyrimidin-6-yl)-3,5-difluorophenoxy]-N-methylpropan-1-amine trifluoroacetic acid salt]
- T/C on day 0 ([1]; 30 mg/kg PO): 1.00
- T/C on day 7 ([1]; 30 mg/kg PO): 0.55
- T/C on day 14 ([1]; 30 mg/kg PO): 0.68
- T/C on day 21 ([1]; 30 mg/kg PO): 0.35
- T/C on day 28 ([1]; 30 mg/kg PO): 0.43
- T/C on day 35 ([1]; 30 mg/kg PO): 0.53
- T/C on day 0 ([1]; 50 mg/kg PO): 1.00
- T/C on day 7 ([1]; 50 mg/kg PO): 0.41
- T/C on day 14 ([1]; 50 mg/kg PO): 0.44*
- T/C on day 21 ([1]; 50 mg/kg PO): 0.27*
- T/C on day 28 ([1]; 50 mg/kg PO): 0.31
- T/C on day 35 ([1]; 50 mg/kg PO): 0.26
- tumor growth inhibition (activity call) ([1]; orally on days 1, 7 and 14 at 50 mg/kg): active

SMILES: C[C@H](Nc1c(-c2c(F)cc(OCCCN(C)C)cc2F)c(Cl)nc2ncnn12)C(F)(F)F.Cl [Example 1a, 5-chloro-6-{4-[3-(dimethylamino)propoxy]-2,6-difluorophenyl}-N-[(1S)-2,2,2-trifluoro-1-methylethyl][1,2,4]triazolo[1,5-a]pyrimidin-7-amine hydrogen chloride Salt]
- A340 Compound/A340 Control (MAP-rich tubulin): 6.1
- T/C on day 0 ([2]; DLD1, 10 mg/kg IV): 1.00
- T/C on day 7 ([2]; DLD1, 10 mg/kg IV): 0.63
- T/C on day 14 ([2]; DLD1, 10 mg/kg IV): 0.51
- T/C on day 21 ([2]; DLD1, 10 mg/kg IV): 0.58
- T/C on day 0 ([2]; DLD1, 15 mg/kg IV): 1.00
- T/C on day 7 ([2]; DLD1, 15 mg/kg IV): 0.21**
- T/C on day 14 ([2]; DLD1, 15 mg/kg IV): 0.25
- T/C on day 21 ([2]; DLD1, 15 mg/kg IV): 0.31
- T/C on day 0 ([2]; DLD1, 20 mg/kg IV): 1.00
- T/C on day 7 ([2]; DLD1, 20 mg/kg IV): 0.31**
- toxicity of treatment dose ([2]; DLD1 xenograft mice, 20 mg/kg IV, day 14): Toxic

SMILES: CNCCCOc1cc(F)c(-c2c(Cl)nc3ncnn3c2N[C@@H](C)C(F)(F)F)c(F)c1.Cl [Example 2a, 5-Chloro-6-{2,6-difluoro-4-[3-(methylamino)propoxy]phenyl}-N-[(1S)-2,2,2-trifluoro-1-methylethyl][1,2,4]triazolo[1,5-a]pyrimidin-7-amine hydrogen chloride]
- tumor growth inhibition (activity call) ([3]; orally single dose on day 0 at 5 or 2.5 mg/kg): not at 5 or 2.5 mg/kg
- tumor growth inhibition (activity call) ([3]; orally single dose on day 0 at 30, 20, and 10 mg/kg): inhibited the growth
- T/C on day 0 ([4]; A549, 15 mg/kg IV): 1.01
- T/C on day 7 ([4]; A549, 15 mg/kg IV): 0.75*
- T/C on day 14 ([4]; A549, 15 mg/kg IV): 0.61**
- T/C on day 21 ([4]; A549, 15 mg/kg IV): 0.83
- T/C on day 27 ([4]; A549, 15 mg/kg IV): 0.75
- T/C on day 35 ([4]; A549, 15 mg/kg IV): 0.76
- tumor growth inhibition (activity call) ([4]; A549, 15 mg/kg intravenously on days 0, 6, 13, and 20): not at 15 mg/kg
- T/C on day 0 ([4]; A549, 20 mg/kg IV): 0.97
- T/C on day 7 ([4]; A549, 20 mg/kg IV): 0.79
- T/C on day 14 ([4]; A549, 20 mg/kg IV): 0.55**
- T/C on day 21 ([4]; A549, 20 mg/kg IV): 0.59*
- T/C on day 27 ([4]; A549, 20 mg/kg IV): 0.50*
- T/C on day 35 ([4]; A549, 20 mg/kg IV): 0.49*
- T/C on day 0 ([4]; A549, 25 mg/kg IV): 0.99
- T/C on day 7 ([4]; A549, 25 mg/kg IV): 0.72*
- T/C on day 14 ([4]; A549, 25 mg/kg IV): 0.51**
- T/C on day 21 ([4]; A549, 25 mg/kg IV): 0.57*
- T/C on day 27 ([4]; A549, 25 mg/kg IV): 0.48*
- T/C on day 35 ([4]; A549, 25 mg/kg IV): 0.44*
- tumor growth inhibition (activity call) ([4]; A549, 25 and 20 mg/kg intravenously on days 0, 6, 13, and 20): inhibited the growth
- T/C on day 0 ([2]; DLD1, 10 mg/kg IV): 1.00
- T/C on day 7 ([2]; DLD1, 10 mg/kg IV): 0.66
- T/C on day 14 ([2]; DLD1, 10 mg/kg IV): 0.65
- T/C on day 21 ([2]; DLD1, 10 mg/kg IV): 0.72
- T/C on day 0 ([2]; DLD1, 15 mg/kg IV): 1.00
- T/C on day 7 ([2]; DLD1, 15 mg/kg IV): 0.59
- T/C on day 14 ([2]; DLD1, 15 mg/kg IV): 0.54
- T/C on day 21 ([2]; DLD1, 15 mg/kg IV): 0.74
- T/C on day 0 ([2]; DLD1, 20 mg/kg IV): 1.00
- T/C on day 7 ([2]; DLD1, 20 mg/kg IV): 0.46*
- T/C on day 14 ([2]; DLD1, 20 mg/kg IV): 0.33
- T/C on day 21 ([2]; DLD1, 20 mg/kg IV): 0.53

SMILES: C[C@H](Nc1c(-c2c(F)cc(OCCCO)cc2F)c(Cl)nc2ncnn12)C(F)(F)F [Example 20, 3-[4-(5-Chloro-7-{[(1S)-2,2,2-trifluoro-1-methylethyl]amino}[1,2,4]triazolo[1,5-a]pyrimidin-6-yl)-3,5-difluorophenoxy]propan-1-ol]
- T/C on day 0 ([1]; 30 mg/kg PO): 1.00
- T/C on day 7 ([1]; 30 mg/kg PO): 0.37*
- T/C on day 14 ([1]; 30 mg/kg PO): 0.35**
- T/C on day 21 ([1]; 30 mg/kg PO): 0.35
- T/C on day 28 ([1]; 30 mg/kg PO): 0.28
- T/C on day 35 ([1]; 30 mg/kg PO): 0.35
- T/C on day 0 ([1]; 50 mg/kg PO): 1.00
- T/C on day 7 ([1]; 50 mg/kg PO): 0.27**
- T/C on day 14 ([1]; 50 mg/kg PO): 0.46**
- T/C on day 21 ([1]; 50 mg/kg PO): 0.33**
- T/C on day 28 ([1]; 50 mg/kg PO): 0.29**
- T/C on day 35 ([1]; 50 mg/kg PO): 0.31*
- tumor growth inhibition (activity call) ([1]; orally on days 1, 7 and 14 at 50 and 30 mg/kg): active
